The record followed here is PubChem BioAssay AID463204 (Broad Institute, 2010).

Molecules are shown by their SMILES. The source made the active and inactive calls.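 Rule for the calls: active = AC50 no more than ten times the top concentration tested, that is within one log above it; inconclusive = flat curve fit with activity between 30% and 70%, or invalid poor fit; inactive = AC50 beyond ten times the top tested dose.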

The subject of the assay is S. cerevisiae Mot1-301 ts growth rescue, BacTiter-Glo ATP luminescence. The assay is described as follows: restored Mot1-301 yeast growth at 38.5C – whole organism, S. cerevisiae, Mot1-301 ts mutant, luminescence, dose retest, SUMOylation pathway inhibitor project, confirmation (AID 463204).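 Note: growth at restrictive 38.5 degrees C of Mot1-301 OY566 strain; actives raise luminescence by restoring growth of the ts mutant at high temperature.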
Consider `Cc1ccc(N(C(=O)Cn2nnc3ccccc32)C(C(=O)NC2CCCCC2)c2cn(C)nc2C)cc1` (stereo not drawn), for which the AC50 is > 21 µM (inactive).

With `CN1C(=O)NC(=O)[C@]2(Cc3ccccc3N3CCN(c4ccccc4)CC32)C1=O` (stereo partly drawn), the AC50 is > 42 µM (inactive).

Turning to `O=C(CSc1nc2ccc(Nc3nc(N4CCOCC4)nc(N4CCOCC4)n3)cc2s1)N1CCOCC1`, the AC50 was > 42 µM (inactive).

With `COc1cccc(CN(C)CC2CCCN(CCc3ccc(Cl)cc3)C2)c1OC` (stereo not drawn), the AC50 is > 42 µM (inactive).

`CCCCC(=O)NCCc1ccc(S(N)(=O)=O)cc1`: the AC50 was > 42 µM (inactive).

Consider `O=C(c1ccccc1F)N1CCCc2ccccc21`, for which the AC50 was > 42 µM (inactive).

`CCCCOc1ccc(CSC(=N)N)cc1Cl`: the AC50 is > 42 µM (inactive).

Consider `O=C(NCCNc1ccc(Cl)cc1[N+](=O)[O-])c1ccccc1F`, for which the AC50 is > 42 µM (inactive).

As for `CCOC(=O)c1ccccc1NC(=O)C1CC(=O)N(C2CCCCC2)C1` (stereo not drawn), the AC50 was > 42 µM (inactive).

As to `COc1cccc(N=Nc2c(=O)[nH]n3c(=O)cc(C)[nH]c23)c1`, the AC50 was > 42 µM (inactive).

Take `Cc1ccc(SC[C@H](C)CN2CC[C@H](C)CCC2=O)cc1`: the AC50 was > 42 µM (inactive).

Turning to `N#C/C(=C\Nc1ccc2c(c1)OCCO2)c1nc2ccccc2[nH]1`, the AC50 was > 42 µM (inactive).

Regarding `COc1ccc2c(c1)[C@@]13CCC=C[C@H]1[C@@H](C2)NCC3`, the AC50 was > 42 µM (inactive).

With `Fc1cccc(Cl)c1CSc1nnc(CN2CCOCC2)n1-c1ccccc1`, the AC50 is > 42 µM (inactive).

As to `COc1cc(OC)cc(OC(=O)c2ccc3c(=O)n4c(nc3c2)CCC4)c1`, the AC50 is > 42 µM (inactive).

Consider `S=C(Nc1ccc(Cl)cc1)N1CCN(Cc2ccccc2)CC1`, for which the AC50 is > 42 µM (inactive).

With `CN1C(=O)C(O)(CC(=O)c2ccccc2O)c2cc(Br)ccc21` (stereo not drawn), the AC50 was > 42 µM (inactive).

In the case of `COc1cccc2[nH]c(=O)c(-c3ccccc3)cc12`, the AC50 is > 42 µM (inactive).

`Cc1ccc(/C=C/C(=O)c2ccc([N+](=O)[O-])o2)cc1`: the concentration at half-maximal activity (AC50) is 3.5 µM.

On to `CCOC(=O)c1[nH]c2ccc(F)cc2c1NC(=O)CCN1CCOCC1`, for which the AC50 was > 42 µM (inactive).

On to `O=C(CCNC(=O)c1ccccc1)Nc1cccnc1`, for which the AC50 is > 42 µM (inactive).

Turning to `CCC(Cc1ccccc1)NC(=O)C1CCN(c2nn3c(=O)cc(C)nc3s2)CC1` (stereo not drawn), the AC50 is > 42 µM (inactive).

Take `O=[N+]([O-])c1c(NCCCO)cc(Sc2nc3ccccc3s2)c2nonc12`: the AC50 was 40 µM.

With `CN(C)S(=O)(=O)c1ccc(C(=O)/C=C/c2cccnc2)cc1`, the AC50 is > 42 µM (inactive).

Consider `CCCCCCCCc1nc(SCC(C)=O)n[nH]1`, for which the AC50 was > 42 µM (inactive).

Consider `Cc1cccn2c(=O)c3cc(C(=O)NCc4cccnc4)c(=N)n(C(C)C)c3nc12`, for which the AC50 was > 42 µM (inactive).

`CC(=O)Nc1cccc2c1C(=O)N(c1ccccc1C)C2=O`: the AC50 is > 42 µM (inactive).

As to `CC(C)[N+]1(C)[C@@H]2CC[C@@H]1CC(OC(=O)C(CO)c1ccccc1)C2` (stereo partly drawn), the AC50 is > 42 µM (inactive).

Consider `Cn1c(-c2ccc3c(c2)OCO3)cnc1NC(=O)CCC(=O)NCCc1ccccc1`, for which the AC50 is > 42 µM (inactive).

As for `COc1ccc(NC(=O)CSc2nnc(-c3ccccn3)n2-c2ccccc2)cc1OC`, the AC50 is > 42 µM (inactive).

As for `COc1cccc(NC(=O)c2nn(C34CC5CC(CC(C5)C3)C4)cc2[N+](=O)[O-])c1`, the AC50 is > 42 µM (inactive).

`O=C1CC(=O)C(n2cncn2)C(c2ccc(Cl)cc2Cl)C1` (stereo not drawn): the AC50 is > 42 µM (inactive).

Consider `O=C(c1ccncc1)N(Cc1ccccc1)Cc1nc2ccccc2c(=O)[nH]1`, for which the AC50 is > 42 µM (inactive).

Turning to `CCOC(=O)C(NC(=O)c1ccccc1)(N1CCOCC1)C(F)(F)F` (stereo not drawn), the AC50 is > 42 µM (inactive).

With `O=C(COC(=O)c1cccc(Br)c1)Nc1ccc2[nH]c(=O)[nH]c2c1`, the AC50 is > 42 µM (inactive).

For `CCn1c(-c2ccccc2)c(C(=O)CC#N)c2ccccc21`, the AC50 was > 42 µM (inactive).

With `COc1ccc2cc(C#N)c(Nc3cccc(F)c3)nc2c1`, the AC50 was > 42 µM (inactive).

With `C=CCN1c2ccccc2[C@]23C[C@@H](C(=O)OC)N=C2NC(C(=O)OC)=C(C(=O)OC)[C@H]13`, the AC50 is > 42 µM (inactive).

In the case of `N=c1c[n+](C2CCCCC2)[n-]o1`, the AC50 was > 42 µM (inactive).

With `CCN(CC)CCCNC(=O)C1c2ccccc2C(=O)N(CCOC)C1c1ccc(F)cc1` (stereo not drawn), the AC50 is > 21 µM (inactive).

`Cc1cc(C(F)(F)F)c(C#N)c(=O)[nH]1`: the AC50 was > 42 µM (inactive).

For the molecule `CCCC(=O)NC(C)c1nc2ccccc2[nH]1` (stereo not drawn), the AC50 is > 42 µM (inactive).

As to `O=S(=O)(Nc1ccc(N2CCOCC2)cc1)c1cccs1`, the AC50 was > 42 µM (inactive).

`COc1ccc(OCC(=O)Nc2ccc(C)cc2)cc1`: the AC50 is > 42 µM (inactive).

On to `Cc1ccccc1C(=O)NNC(=O)/C=C\C(=O)O`, for which the AC50 was > 42 µM (inactive).

On to `Cc1ccc(-n2nnnc2SCC#N)cc1`, for which the AC50 was > 42 µM (inactive).

Regarding `Cc1ccccc1NC1=NCCCS1`, the AC50 was > 42 µM (inactive).

With `Cc1ccc(-n2nc3c(=O)n(CCCC(=O)NCc4cccc(F)c4)nc(C)c3c2C)cc1`, the AC50 is > 42 µM (inactive).

With `COc1ccccc1C(=O)NCCNc1ccc([N+](=O)[O-])cc1Cl`, the AC50 is > 110 µM (inactive).

In the case of `COCCCNS(=O)(=O)c1ccc(Oc2ncc(C(F)(F)F)cc2Cl)cc1`, the AC50 was > 42 µM (inactive).

Consider `CN1CCCCC1=NCCCn1cnc2c1c(=O)n(C)c(=O)n2C`, for which the AC50 is > 42 µM (inactive).

Consider `Cc1ccc(S(=O)(=O)NCCS(=O)(=O)N2CCN(c3ccc(F)cc3)CC2)cc1`, for which the AC50 is > 42 µM (inactive).

In the case of `Cc1ccc(/C=C2\SC(N3CCCC3)=NC2=O)cc1`, the AC50 was > 42 µM (inactive).

`Nc1nnc(COc2ccc(Br)cc2Br)s1`: the AC50 was > 42 µM (inactive).

As to `COc1ccc(/C=C(\C#N)C(=O)c2cccn2C)cc1`, the AC50 was > 42 µM (inactive).

Consider `CC1CCC(C(C)C)C(OC(=O)COC(=O)c2cccn2C)C1` (stereo not drawn), for which the AC50 is > 42 µM (inactive).

As to `O=C(Cc1ccc(Cl)cc1)NC(=S)Nc1ccccc1N1CCOCC1`, the AC50 was > 42 µM (inactive).

For `S=C(c1ccc(N2CCOCC2)cc1)N1CCCCC1`, the AC50 was > 42 µM (inactive).

On to `O=C(CSc1nc2ncccc2[nH]1)NC1CCCCC1`, for which the AC50 was > 42 µM (inactive).

For `CC(C(=O)N1CCN(C(=O)c2ccco2)CC1)n1sc2ccccc2c1=O` (stereo not drawn), the AC50 is > 42 µM (inactive).

Turning to `COc1ccc(C(=O)OCC(=O)c2ccc(C)c(S(=O)(=O)N3CCOCC3)c2)cc1OC`, the AC50 was > 42 µM (inactive).

Turning to `CCn1c(=O)n(CC)c2cc(NC(=O)c3ccccc3Cl)ccc21`, the AC50 is > 42 µM (inactive).

Consider `Oc1ccc(Br)cc1/C=N/n1c(COc2ccccc2)n[nH]c1=S`, for which the half-maximal activity concentration (AC50) is 14.2 µM.

For the molecule `Cc1cc([N+](=O)[O-])nn1CC(=O)NNC(=S)Nc1ccc([N+](=O)[O-])cc1`, the AC50 is > 42 µM (inactive).

Take `Cc1ccc(/C(N)=N/OC(=O)/C=C/c2ccccc2)cc1`: the AC50 was > 42 µM (inactive).

For `CCCc1nn2c(=O)cc(CSCC(=O)Nc3ccc(OC)cc3)nc2s1`, the AC50 is > 42 µM (inactive).

Regarding `CCC(C)(C)NC(=O)C(c1ccc(C)cc1)N(CC1CCCO1)C(=O)CNC(=O)c1cccs1` (stereo not drawn), the AC50 is > 42 µM (inactive).

Consider `CCC1CCCCN1C(=O)CSc1nc2c([nH]c3ccccc32)c(=O)n1C` (stereo not drawn), for which the AC50 was > 42 µM (inactive).

For `CCOC(=O)C1CCN(C(=O)c2ccc3c(c2)NC(=O)/C(=C/c2ccccc2)S3)CC1`, the AC50 is > 42 µM (inactive).

Take `COc1ccc2c(c1)OC[C@H]1[C@H]2N2C(=O)c3ccccc3NC(=O)[C@@]2(C)[C@H]1c1ccccc1`: the AC50 was > 42 µM (inactive).

As to `Cc1ccc(N(CC(=O)Nc2cccc(C)c2)S(=O)(=O)c2cccc3nonc23)cc1`, the AC50 is > 21 µM (inactive).

For `CCCCn1c(N)c(N(CCOC)C(=O)c2ccc(Cl)c(S(=O)(=O)N3CCCCC3)c2)c(=O)[nH]c1=O`, the AC50 is > 42 µM (inactive).

Turning to `COc1ccc(C2CC(c3cccs3)=NN2C(=O)c2ccccc2)cc1OC` (stereo not drawn), the AC50 was > 42 µM (inactive).

Regarding `CCCCC(O)(CCCC)C(=O)NN(C(=O)OC)c1ccc(C)cc1`, the AC50 was > 42 µM (inactive).

As to `CCN1C(=O)c2cccc3c(S(=O)(=O)Nc4ccc(OC)cc4OC)ccc1c23`, the AC50 is > 42 µM (inactive).

As for `Fc1ccccc1-n1cc(-c2ccccc2)[nH]c1=S`, the AC50 is > 42 µM (inactive).

Turning to `CN1CCN(C(=O)CCN2C(=O)/C(=C/c3ccccc3Cl)SC2=S)CC1`, the AC50 is > 42 µM (inactive).

With `Cc1occc1-c1nnc(SCC(=O)N2CCN(c3ccccc3)CC2)n1C`, the AC50 is > 42 µM (inactive).

Turning to `Cc1noc(C)c1Cc1ccc(O)cc1`, the AC50 was > 42 µM (inactive).

As to `CCOC(=O)Cc1csc(NC(=O)NC2(C(F)(F)F)Oc3ccccc3O2)n1`, the AC50 was > 42 µM (inactive).

For the molecule `Cc1cc(/C=C2\C(=O)NC(=O)N(c3ccccc3F)C2=O)c(C)n1-c1cc(C(=O)O)cc(C(=O)O)c1`, the AC50 was > 42 µM (inactive).

Turning to `Cc1c(=O)n(OCc2ccccn2)c2ccccc2[n+]1[O-]`, the AC50 is > 42 µM (inactive).

Consider `Cn1c(C(=O)NCCc2ccsc2)cc2c(=O)n(C)c3ccccc3c21`, for which the AC50 is > 42 µM (inactive).

In the case of `COCCN(C(=O)C1CC1)c1nnc(-c2ccc(C)cc2)s1`, the AC50 was > 42 µM (inactive).

Consider `Cc1noc(C)c1S(=O)(=O)N1CCCC(C(=O)NCC2CCCO2)C1` (stereo not drawn), for which the AC50 was > 42 µM (inactive).

Regarding `CN(C)/C=N/NC(=O)c1ccccc1`, the AC50 is > 42 µM (inactive).

On to `CS(=O)(=O)N1CCCC(C(=O)Nc2ccc(F)cc2F)C1` (stereo not drawn), for which the AC50 was > 42 µM (inactive).

On to `Cc1cc(C)c2c(=O)[nH]cnc2n1`, for which the AC50 was > 42 µM (inactive).

By AC50 is commonly meant the concentration giving half of the maximal activity seen.
